Test results published in publication PMC2916031 (Journal of molecular biology, 2010).

What was measured:
[1] = biological target: C-terminally truncated MEAT1 (Trypanosoma brucei, UniProt C7AJA4); test: U-addition to […]'-labelled RNA, denaturing gel; format: biochemical; settings: 100 µM UTP, 300 nM enzyme, 1 µM RNA, Mg acetate, pH 8.0, 27 °C
[2] = biological target: full-length TbMEAT1 (Trypanosoma brucei, UniProt C7AJA4); test: U-addition to […]'-labelled RNA, denaturing gel; format: biochemical; settings: 100 µM UTP, 300 nM enzyme, 1 µM RNA, Mg acetate, pH 8.0, 27 °C
Chain of full-length TbMEAT1 (C7AJA4 whole entry): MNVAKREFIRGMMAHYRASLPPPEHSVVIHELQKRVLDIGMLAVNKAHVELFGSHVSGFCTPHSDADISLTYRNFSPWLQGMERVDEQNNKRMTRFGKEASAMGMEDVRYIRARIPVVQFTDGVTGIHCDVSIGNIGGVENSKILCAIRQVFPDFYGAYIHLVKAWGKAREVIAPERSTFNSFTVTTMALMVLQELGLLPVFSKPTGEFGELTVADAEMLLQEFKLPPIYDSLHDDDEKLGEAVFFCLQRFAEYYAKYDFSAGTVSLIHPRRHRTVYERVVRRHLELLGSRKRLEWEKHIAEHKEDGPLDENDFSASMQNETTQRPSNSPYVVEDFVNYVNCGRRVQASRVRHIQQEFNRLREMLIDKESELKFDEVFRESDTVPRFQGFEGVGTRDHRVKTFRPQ

Chain of C-terminally truncated MEAT1 (C7AJA4 1-381): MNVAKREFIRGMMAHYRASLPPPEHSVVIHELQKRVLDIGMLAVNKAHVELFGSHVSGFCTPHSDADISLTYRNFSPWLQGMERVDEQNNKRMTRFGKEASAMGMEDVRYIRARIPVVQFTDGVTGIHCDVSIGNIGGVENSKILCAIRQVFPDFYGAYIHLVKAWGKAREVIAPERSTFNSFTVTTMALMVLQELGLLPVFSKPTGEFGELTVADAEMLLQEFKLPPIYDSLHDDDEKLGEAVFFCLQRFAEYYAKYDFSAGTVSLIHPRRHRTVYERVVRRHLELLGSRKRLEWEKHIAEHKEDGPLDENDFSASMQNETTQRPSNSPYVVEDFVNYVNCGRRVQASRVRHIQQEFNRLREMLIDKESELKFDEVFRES

SMILES: O=c1ccn([C@@H]2O[C@H](COP(=O)(O)OP(=O)(O)OP(=O)(O)O)[C@@H](O)[C@H]2O)c(=O)[nH]1 [UTP]
- U-addition to 5'-labelled RNA, denaturing gel [1]: neither limited proteolysis nor genetically-engineered C-terminal deletion had any discernable effects on enzymatic activity
- U-addition to 5'-labelled RNA, denaturing gel [2]: U-addition patterns for full-length TbMEAT1
